Molecule `Cc1ccc(-c2nnc(N)o2)s1` showed a melting point of 247 to 249 °C.
`CCCC1CCc2[nH]c(=O)c(C#N)cc2C1` (configuration not stated): the melting point is 233 to 235 °C.
For the molecule `Cc1sc(C(=O)O)cc1S(=O)(=O)Cl`, the melting point was 148 to 150 °C.
`Sc1nnc2sc3ccccc3n12` registered a melting point of 252 to 254 °C.
Under `CC(C)(C)NS(=O)(=O)c1ccc(Cl)c(C(=O)O)c1` stands 179 to 181 °C.
`CC(C)CC(=O)NC(C(=O)O)C(C)C` (configuration not stated) returned a melting point of 186 to 188 °C.
For the molecule `Cn1c(-c2ccccc2)cnc1SCC(=O)O`, the melting point is 199 to 201 °C.
Under `CC(C)(C)OC(=O)NC(CN)CN` stands 58 to 60 °C; under `[N-]=[N+]=NC(C(=O)NC1CC1)c1ccc(F)cc1` (configuration not stated), 53 to 55 °C; under `O=C(O)c1ccccc1Cc1nc2ccccc2s1`, 182 to 184 °C.
The value for `COC(=O)c1cc(S(=O)(=O)Cl)cc(F)c1F` was 56 to 58 °C; that for `NNc1ccc(S(N)(=O)=O)cn1` was 190 to 192 °C; that for `NCCNc1cn[nH]c(=O)c1Cl` was 195 to 197 °C.
The value for `COCCn1cnc2c1c(=O)n(CC(=O)O)c(=O)n2Cc1ccccc1` was 131 to 133 °C; that for `Nc1ccn(CC(F)(F)F)n1` was 39 to 41 °C.
Molecule `CCS(=O)(=O)CCOc1ccc(S(=O)(=O)Cl)cc1` had a melting point of 92 to 94 °C.
In turn, `O=C(O)Cn1nnc(-c2cccs2)n1` registered a melting point of 220 to 222 °C.
`N#CCn1cc(Br)cn1` had a melting point of 60 to 62 °C.
In the case of `O=C(O)c1cccc(=O)[nH]1`, the melting point fell in the range of 239 to 241 °C.
Under `Cc1cc(OC(C)C(=O)O)ccc1Cl` (configuration not stated) stands 87 to 89 °C; under `Cc1[nH]nc(C(=O)O)c1S(=O)(=O)Cl`, 150 to 152 °C.
Under `CCOCCn1c(N)cc(=O)[nH]c1=O` stands 257 to 259 °C; under `NC(=O)c1cccc(Oc2ccc(N)cn2)c1`, 195 to 197 °C; under `Cc1sc(C(=O)O)cc1S(N)(=O)=O`, 249 to 251 °C.
Under `Cc1nnc2ccc(C#N)cn12` stands 201 to 203 °C; under `O=C(O)CSCc1cccnc1`, 109 to 111 °C.
`Cc1n[nH]c(-c2ccc(N)cc2)n1` showed a melting point of 179 to 181 °C.
The value for `ClC1=Nc2c(cnn2-c2ccccc2)CN1` was 189 to 191 °C; that for `CC(=O)Cn1c(=O)oc(=O)c2ccccc21` was 151 to 153 °C.
As for `N#CCC(=O)c1c[nH]c2cc(Cl)ccc12`, the melting point fell in the range of 293 to 295 °C.
As to `CC(=O)c1ccc(S(=O)(=O)N2CCCCC2C(=O)O)cc1` (configuration not stated), the melting point was 132 to 134 °C.
The molecule `Nc1ccc2oc(C(F)(F)F)nc2c1` registered a melting point of 120 to 122 °C.
`NC(=NO)c1ccc(Cn2cnc3ccccc32)cc1` displayed a melting point of 237 to 239 °C.
The molecule `O=C(CSc1cccs1)Nc1ccc(C(=O)O)cc1` registered a melting point of 233 to 235 °C.
The value for `Oc1cccc2c1NCCC2` was 116 to 118 °C; that for `O=C(CBr)c1ccc(S(=O)(=O)N2CCOCC2)cc1` was 148 to 150 °C; that for `OC1CCC(c2ccccc2)CC1` (configuration not stated) was 117 to 119 °C.
Under `Nc1ccccc1S(=O)(=O)Nc1ccccc1` stands 118 to 120 °C.
Molecule `CC(c1ccc(Cl)cc1Cl)S(N)(=O)=O` (configuration not stated) displayed a melting point of 123 to 125 °C.
Under `OCC1CNC(c2ccccc2)=NO1` (configuration not stated) stands 149 to 151 °C; under `Nc1cc(=O)[nH]n1-c1ccc(F)cc1`, 202 to 204 °C; under `CC(C)CCNC(=O)C1CCN(C(=O)CCl)CC1`, 119 to 121 °C.
Under `c1ccc(N2CCN(CC3CCCNC3)CC2)nc1` (configuration not stated) stands 73 to 75 °C.
Under `O=C(CCl)Nc1ccc(Oc2cccc(Cl)c2)cc1` stands 117 to 119 °C; under `CCn1c(S)nnc1-c1ccncc1`, 140 to 142 °C; under `C=CCNC(=O)c1ccc(N)cc1`, 78 to 80 °C.
`Cc1cccc(-c2nc3cc(Cl)ccc3[nH]2)c1O` gave a melting point of 249 to 251 °C.
Under `CS(=O)(=O)N1CCCC(C(=O)O)C1` (configuration not stated) stands 107 to 109 °C.
The value for `Sc1nc(-c2ccc3c(c2)OCCO3)n[nH]1` was 282 to 284 °C.
The value for `CC(Cl)C(=O)N1CC(=O)Nc2cc(C(F)(F)F)ccc21` (configuration not stated) was 152 to 154 °C; that for `CC(C)c1ccc(S(=O)(=O)NCCC(=O)O)cc1` was 195 to 205 °C; that for `O=C(NC1CCS(=O)(=O)C1)OCC(F)(F)F` (configuration not stated) was 79 to 81 °C.
Take `COc1cc(C=O)cc(Cl)c1OC(C)C`: the melting point lay in the range of 34 to 36 °C.
`NC(=O)C1CC(C(=O)O)=NN1c1ccccc1` (configuration not stated) displayed a melting point of 209 to 211 °C.
The value for `O=C(N/N=C/c1c(O)ccc2ccccc12)c1ccncc1` was 266 to 268 °C; that for `CCC(C)n1ncc2c(C(=O)O)cc(C3CC3)nc21` (configuration not stated) was 134 to 136 °C.
`NC(=O)c1cc(N)cc(C(N)=O)c1` registered a melting point of 246 to 248 °C.
Consider `CCc1ncc(N)cn1`, for which the melting point is 125 to 127 °C.
Turning to `COCCc1ccc(OCCCC(=O)O)cc1`, the melting point lay in the range of 47 to 49 °C.
The value for `Cc1cc(C)c(N=C=S)c(Cl)c1` was 55 to 57 °C; that for `CC(=O)c1c(C)nn(CCS(C)(=O)=O)c1C` was 139 to 141 °C; that for `COC(=O)c1cc(F)c(Br)c([N+](=O)[O-])c1` was 66 to 68 °C.
Under `Cc1cc(=O)[nH]cn1` stands 138 to 140 °C; under `NNc1ccc(S(=O)(=O)NC2CC2)cn1`, 195 to 197 °C.
As to `Cc1scc(C(=O)O)c1C`, the melting point was 139 to 141 °C.
`CCN1CCCC1CNS(=O)(=O)c1ccc(N)cc1` (configuration not stated) returned a melting point of 101 to 103 °C.
`O=C(O)c1nn(-c2ccc(F)cc2)c2c1CCCCC2`: the melting point lay in the range of 167 to 169 °C.
`Oc1ncc(F)cc1I` showed a melting point of 119 to 121 °C.
Under `Cc1cc(C(=O)O)nn1C1CCCCC1` stands 145 to 147 °C.
The value for `O=C(CCSc1ccccc1)c1ccc(F)cc1` was 111 to 113 °C; that for `NC(=S)NN=Cc1ccccc1Cl` was 210 to 212 °C; that for `Nc1ccnc(CO)c1` was 99 to 101 °C.
Under `CC(=O)c1ccc(C)c(S(N)(=O)=O)c1` stands 144 to 146 °C.
For `CC(=O)Nc1cccc(N)c1C`, the melting point fell in the range of 142 to 144 °C.
The value for `COc1ccc(C(=O)NC(=O)CCl)cc1` was 160 to 162 °C.
Under `Brc1nnc2ccccn12` stands 109 to 111 °C; under `OCc1cnc(-c2ccccc2)s1`, 72 to 74 °C.
The value for `CC(=O)Nc1cncc(C(=O)NN)c1` was 229 to 231 °C; that for `Cc1cccc(/C=C/c2cc(C(=O)O)c3cc(Br)ccc3n2)c1` was 286 to 288 °C; that for `O=S1(=O)CCNC2CCCCC21` (configuration not stated) was 75 to 77 °C.
`O=C(O)/C=C/c1ccc2c(c1)CCO2` came in with a melting point of 175 to 177 °C.
`Cc1cc(N)n(C(C)(C)C)n1` returned a melting point of 66 to 68 °C.
With `Cc1ccc(CC(=O)Cc2ccc(C)cc2)cc1`, the melting point lay in the range of 53 to 55 °C.
Molecule `CC(C)(O)c1ccc2[nH]ccc2c1` came in with a melting point of 110 to 112 °C.
The molecule `BrCCc1ccc2ccccc2c1` came in with a melting point of 62 to 64 °C.
The value for `OCc1cc(Cl)c2c(c1)OCO2` was 101 to 105 °C; that for `O=C(CCl)NC1CCN(C(=O)CCc2ccccc2)CC1` was 117 to 119 °C.

Broadly, the melting point is the temperature of the solid-liquid transition.

The record behind these values is a melting point compilation (Tetko et al.).
